We go through one compound from publication PMC7235904, “Is Blood a Good Indicator for Detecting Antimicrobials in Meat? Evidence for the Development of In Vivo Surveillance Methods” (Antibiotics, 2020).

Where two headings read alike, the source gives them in different places. Marks after values point to notes of the source that are not given here.

A short description of data set [1]: Antimicrobial residue concentration and depletion in muscle of treated pigs within the withdrawal period (LC-MS/MS or HPLC-FLD). The following applies: for concentration at 2 day of withdrawal period: withdrawal period Day 2, pig; for concentration at 3 day of withdrawal period: withdrawal period Day 3, pig. It is filed as in vivo. The source says:
To obtain samples containing antimicrobial compounds administered in vivo, 93 piglets (62 female, 31 male) with an average weight of 43.00 ± 12.79 kg were provided at treatment onset. These piglets were untreated animals that remained on the premises of the Faculty of Veterinary Sciences at the University of Zaragoza (Zaragoza, Spain) 40 days before administration of the compounds. Both during the acclimatization and withdrawal periods, animals were fed ad libitum with a special mixed feed that was free of antibiotics ([…], Spain), and water was provided from a separated, controlled water circuit. Piglets were raised in separate pens depending on the antibiotic administrated. After administration, animals were slaughtered at preset intervals within the withdrawal period in order to obtain samples containing different antimicrobial concentrations above and below the MRLs for muscle. Figure S1 indicates the slaughter days and the withdrawal periods set by the manufacturer for each antimicrobial compound administered. Between one and three piglets were slaughtered on the same day post-administration. The day of slaughter was calculated from the first day after the last antimicrobial treatment dose. […] Apart from samples containing antimicrobial compounds administered in vivo, and as a part of the sample bank, 15 of the 93 piglets were slaughtered after the acclimatization period and before treatment onset. Animals were stunned and slaughtered following the guidelines established by European Council Regulation (EC) No. 1099/2009 [39] regarding the protection of animals at the time of slaughter or killing. A penetrative captive bolt gun was used to stun the pigs, positioning it firmly against the skin, in the middle of the forehead, 2 cm above the line of the eyes, aiming towards the tail. This was followed by complete exsanguination carried out by incision in the jugular furrow at the base of the neck to sever all the major blood vessels arising from the heart. The samples obtained from them were used as blank samples for analysis. […] Samples were immediately frozen at -20 °C until analysis. For HPLC-FLD analyses, matrix solid phase dispersion (MSPD) was used. A total of 1.00 ± 0.01 g of tissue was weighed. Internal quality control samples were spiked at this point. […] It was introduced into a 25 mL reservoir and compacted. Clean-up was made with 8 mL of hexane, and quinolones were eluted with 15 mL acetonitrile/methanol (1:1) acidified with acetic acid 1%. […] The extraction procedure for LC-MS/MS determination was based on Chico et al.. […] All samples were spiked with IS at this point, and calibrants and internal quality control samples were prepared by spiking the corresponding amount of standard working solution. A total of 200 μL of 0.1 M EDTA was added, followed by 10 mL of 70% methanol, and samples were vortexed for 30 s, swung for 15 min, and finally centrifuged at 4500 rcf for 10 min at a temperature below 10 °C (Heraeus Multifuge X3 FR, Heraeus, Hanau, Germany). Then, 500 μL of supernatant was collected and diluted by adding 1500 μL of water. Extracts were filtered through 0.2 μm pore filters directly into LC-MS/MS vials. […] Mobile phase consisted of eluent A: phosphoric acid with trimethylamine buffer (pH = 3), and eluent B: acetonitrile, in isocratic mode (21:79) with a flow rate of 1 mL/min. Injected volume was 50 μL. […] The same mobile phase and gradient conditions as in SCIEX instruments were applied. Injected volume was 10 μL. Two ESI+ MRM transitions were monitored for each compound (Table S5). […] Results were represented as the mean ± standard deviation using the PRISM program (GraphPad Software, Inc., San Diego, USA). The rates of elimination (λz) of antibiotics from muscle and blood were determined by regression analysis. […]

The nature of data set [2]: Antimicrobial residue concentration and depletion in blood (serum) of treated pigs within the withdrawal period (LC-MS/MS). It counts as in vivo. The source says:
To obtain samples containing antimicrobial compounds administered in vivo, 93 piglets (62 female, 31 male) with an average weight of 43.00 ± 12.79 kg were provided at treatment onset. These piglets were untreated animals that remained on the premises of the Faculty of Veterinary Sciences at the University of Zaragoza (Zaragoza, Spain) 40 days before administration of the compounds. Both during the acclimatization and withdrawal periods, animals were fed ad libitum with a special mixed feed that was free of antibiotics ([…], Spain), and water was provided from a separated, controlled water circuit. Piglets were raised in separate pens depending on the antibiotic administrated. After administration, animals were slaughtered at preset intervals within the withdrawal period in order to obtain samples containing different antimicrobial concentrations above and below the MRLs for muscle. Figure S1 indicates the slaughter days and the withdrawal periods set by the manufacturer for each antimicrobial compound administered. Between one and three piglets were slaughtered on the same day post-administration. The day of slaughter was calculated from the first day after the last antimicrobial treatment dose. […] Apart from samples containing antimicrobial compounds administered in vivo, and as a part of the sample bank, 15 of the 93 piglets were slaughtered after the acclimatization period and before treatment onset. Animals were stunned and slaughtered following the guidelines established by European Council Regulation (EC) No. 1099/2009 [39] regarding the protection of animals at the time of slaughter or killing. A penetrative captive bolt gun was used to stun the pigs, positioning it firmly against the skin, in the middle of the forehead, 2 cm above the line of the eyes, aiming towards the tail. This was followed by complete exsanguination carried out by incision in the jugular furrow at the base of the neck to sever all the major blood vessels arising from the heart. The samples obtained from them were used as blank samples for analysis. Blood was collected not only from slaughtered animals, but also from living animals on each day of slaughter. […] For quinolones in blood serum samples, a LC-MS/MS method was set up using a SCIEX Exion LC coupled to TripleQuad 6500+ triple quadrupole detector equipped with an Acquity Ultra Performance Liquid Chromatography Ethylene Bridged Hybrid (UPLC BEH) C18 (1.7 μm, 2.1 × 100 mm) column. Mobile phase consisted of eluent A: 0.1% formic acid in water, and eluent B: 0.1% formic acid in acetonitrile at a flow rate of 0.4 mL/min. […] Injected volume was 5 μL. Analytes were detected using positive electrospray ionization (ESI+) in multiple reaction monitoring (MRM) mode, and two transitions were monitored for each compound of interest (Table S4). […] The same mobile phase and gradient conditions as in SCIEX instruments were applied. […] Two ESI+ MRM transitions were monitored for each compound (Table S5). […] Results were represented as the mean ± standard deviation using the PRISM program (GraphPad Software, Inc., San Diego, USA). The rates of elimination (λz) of antibiotics from muscle and blood were determined by regression analysis. The corresponding half-lives of elimination were calculated according to the following equation: Half-life of elimination.

[3] abbreviates: forequarter muscle, intramuscular, read-out: Concentration in Forequarters.
The mark [4] stands for this setting: hindquarter muscle, intramuscular, read-out: Concentration in Hindquarters.
Where [5] appears, read: loin muscle, intramuscular, read-out: Concentration in Loins.
[6] abbreviates: over the sample bank of treated piglets.

Consider `COc1ccc(NS(=O)(=O)c2ccc(N)cc2)nn1` [Sulfamethoxypyridazine, sulfamethoxypyridazine], for which the half-life in data set [1] (both sexes, intramuscular, pig muscle, T1/2=Ln(2)/λz, read-out: T1/2 half-life of elimination (MUSCLE) (converted)) is 13.2 h; in data set [2] (both sexes, intramuscular, pig blood serum, T1/2=Ln(2)/λz, read-out: T1/2 half-life of elimination (BLOOD) (converted)) it was 13.2 h. For the same compound, the concentration at 2 day of withdrawal period in data set [1] (setting [3]) came to 311 ± 22.6 ng/g; in data set [1] (setting [4]), 351 ± 20.1 ng/g; in data set [1] (setting [5]), 349 ± 16.5 ng/g. The figures for the concentration at 3 day of withdrawal period in data set [1] (setting [3]), in data set [1] (setting [4]) and in data set [1] (setting [5]) were 43 ng/g, 40.5 ± 0.71 ng/g and 49.5 ± 0.71 ng/g, respectively. In addition, the “Maximum concentration value in Muscle” value in data set [1] (setting [6]) is on record as 1179.67 ± 41.88 µg/kg. Besides, in data set [1] (setting [6]), the “Minimum concentration value in Muscle” value was 14.00 ± 1.41 µg/kg. For the same compound, the “Slope (MUSCLE)” value in data set [1] (pig muscle, regression of concentration over the withdrawal period, deep intramuscular treatment) was −0.5494 ± 0.0237 ^a. For the same compound, the “Maximum concentration value in Blood” value in data set [2] (setting [6]) is 4098.00 ± 201.34 µg/kg. Also, the “Minimum concentration value in Blood” value in data set [2] (setting [6]) worked out at 23.67 ± 20.23 µg/kg. In data set [2] (pig blood serum, regression of concentration over the withdrawal period, deep intramuscular treatment), the “Slope (BLOOD)” value is −0.5496 ± 0.02589 ^a.
